Measurements: publication PMC8954547, “Nonpeptidic Z360-Analogs Tagged with Trivalent Radiometals as Anti-CCK2R Cancer Theranostic Agents: A Preclinical Study” (Pharmaceutics, 2022)

Key:
[1] = tested on: HEK293-CCK2i4svR and wtHEK293 xenografts; assay: SPECT/CT of HEK293-CCK2i4svR and wtHEK293 xenografts; format: in vivo, mice; conditions: 4 h and 24 h pi
Protocol: For SPECT/CT imaging, six mice bearing twin HEK293-CCK2i4svR and wtHEK293 tumors were injected in the tail vein with a bolus containing [^111In]In-GAS1/2/3 (100 μL, 9–12 MBq associated with 3 nmol total injected analog in-vehicle: saline/EtOH 9/1 v/v). Mice were euthanized at 4 h and 24 h pi. Tomographic SPECT/CT imaging was performed with the y-CUBE/x-CUBE systems (Molecubes, Belgium). The SPECT system is based on monolithic NaI detectors attached to SiPMs, with a 0.6 mm intrinsic resolution. The CT system is based on a structured CMOS detector of CsI with pixels of 75 µm and operates between 35–80 kVp, 10–500 µA tube current, with a 33 µm fixed focal spot size. SPECT scans were acquired 4 h pi and 24 h pi, with a 40–50 min duration protocol based on the injected activity, and each SPECT scan was succeeded by a CT scan, following General-Purpose protocol under 50 kVp, for co-registration purposes. SPECT images were reconstructed using the MLEM reconstruction method with a 250 µm voxel size and 500 iterations. CT images were reconstructed using the ISRA reconstruction method with a 100 µm voxel size.
Images were exported and post-processed on VivoQuant software, version 4.0 (Invicro, Boston). A smoothing median filter (0.6 mm, spherical window) was applied to the images, and the bladder was removed for consistency purposes. Normalization of images was performed (i.e., all images having the same color scale range values) to achieve a direct visual comparison between the different groups.

[2] = Radioligand stability in mice (radio-HPLC of blood and urine); format: in vivo; conditions: mean ± SD
How it was run: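 Male Swiss albino mice (n=3) given 2.5–3 nmol radioligand i.v. via tail vein in saline/EtOH 9/1. Blood at 5 min and urine at 30 min pi, EDTA-treated on ice, MeCN-deproteinised, analysed by radio-RP-HPLC; value is mean percent intact radioligand ± SD.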

[3] = tested on: SCID mice bearing twin HEK293-CCK2i4svR and wtHEK293 tumors; assay: Biodistribution in SCID mice bearing twin HEK293-CCK2i4svR and wtHEK293 xenografts; format: in vivo
How it was run: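 Uptake is expressed as %IA/g (mean ± SD, n = 4) from gamma counting of blood, organs and tumours collected at set times: 1, 4 and 24 h pi for ^67Ga, 4 and 24 h for ^111In (±gelofusine), 4–96 h for ^177Lu. Radioligands were given iv at 7–40 pmol to SCID mice bearing twin CCK2i4svR-transfected and wild-type HEK293 xenografts.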

[4] = 4 h + Gelo (Gelofusine-treated mice)
[5] = 24 h + Gelo (Gelofusine-treated mice)

SMILES: CC(C)(C)C(=O)CN1C(=O)[C@H](NC(=O)Nc2cccc(C(=O)NCCOCCOCCOCCNC(=O)[C@H](CCC(=O)O)NC(=O)CN3CCN(CC(=O)[O-])CCN(CC(=O)[O-])CCN(CC(=O)[O-])CC3)c2)CN(C2CCCCC2)c2ccccc21.[111In+3] (stereo in doubt) [[^111In]In-GAS1]
- SPECT/CT uptake in CCK2i4svR expressing tumors [1]: Intense uptake
- SPECT/CT uptake in wtHEK293 tumors devoid of CCK2i4svR expression [1]: no uptake is evident
- Intact radioligand in blood ([2]; mice blood collected 5 min pi): 84.6 ± 2.4 (3) %
- Intact radioligand in urine ([2]; mice urine collected 30 min pi): 85.2 ± 5.2 (3) %
- Biodistribution, Blood [3, 4]: 2.75 ± 0.48 %IA/g
- Biodistribution, CCK2i4svR(+) Tumor [3, 4]: 19.17 ± 2.06 %IA/g
- Biodistribution, CCK2i4svR(-) Tumor [3, 4]: 0.86 ± 0.15 %IA/g
- Biodistribution, Femur [3, 4]: 0.65 ± 0.15 %IA/g
- Biodistribution, Heart [3, 4]: 0.92 ± 0.16 %IA/g
- Biodistribution, Intestines [3, 4]: 1.87 ± 0.08 %IA/g
- Biodistribution, Kidneys [3, 4]: 5.93 ± 0.56 %IA/g
- Biodistribution, Liver [3, 4]: 6.34 ± 0.86 %IA/g
- Biodistribution, Muscle [3, 4]: 0.28 ± 0.06 %IA/g
- Biodistribution, Pancreas [3, 4]: 1.47 ± 0.26 %IA/g
- Biodistribution, Spleen [3, 4]: 1.13 ± 0.28 %IA/g
- Biodistribution, Stomach [3, 4]: 0.77 ± 0.14 %IA/g
- Biodistribution, Blood ([3]; 4 h pi): 3.51 ± 0.56 %IA/g
- Biodistribution, CCK2i4svR(+) Tumor ([3]; 4 h pi): 17.79 ± 1.73 %IA/g
- Biodistribution, CCK2i4svR(-) Tumor ([3]; 4 h pi): 0.73 ± 0.05 %IA/g
- Biodistribution, Femur ([3]; 4 h pi): 0.77 ± 0.13 %IA/g
- Biodistribution, Heart ([3]; 4 h pi): 1.10 ± 0.19 %IA/g
- Biodistribution, Intestines ([3]; 4 h pi): 3.37 ± 0.89 %IA/g
- Biodistribution, Kidneys ([3]; 4 h pi): 6.06 ± 1.24 %IA/g
- Biodistribution, Liver ([3]; 4 h pi): 7.69 ± 1.00 %IA/g
- Biodistribution, Lungs ([3]; 4 h pi): 2.23 ± 0.39 %IA/g
- Biodistribution, Muscle ([3]; 4 h pi): 0.26 ± 0.04 %IA/g
- Biodistribution, Pancreas ([3]; 4 h pi): 1.49 ± 0.19 %IA/g
- Biodistribution, Spleen ([3]; 4 h pi): 1.56 ± 0.22 %IA/g
- Biodistribution, Stomach ([3]; 4 h pi): 0.98 ± 0.21 %IA/g
- Biodistribution, Blood [3, 5]: 0.07 ± 0.01 %IA/g
- Biodistribution, CCK2i4svR(+) Tumor [3, 5]: 4.51 ± 0.55 %IA/g
- Biodistribution, CCK2i4svR(-) Tumor [3, 5]: 0.23 ± 0.04 %IA/g
- Biodistribution, Femur [3, 5]: 0.16 ± 0.01 %IA/g
- Biodistribution, Heart [3, 5]: 0.15 ± 0.02 %IA/g
- Biodistribution, Intestines [3, 5]: 0.49 ± 0.13 %IA/g
- Biodistribution, Kidneys [3, 5]: 1.69 ± 0.13 %IA/g
- Biodistribution, Liver [3, 5]: 1.30 ± 0.15 %IA/g
- Biodistribution, Lungs [3, 5]: 0.39 ± 0.03 %IA/g
- Biodistribution, Muscle [3, 5]: 0.06± 0.01 %IA/g
- Biodistribution, Pancreas [3, 5]: 0.14 ± 0.01 %IA/g
- Biodistribution, Spleen [3, 5]: 0.48 ± 0.08 %IA/g
- Biodistribution, Stomach [3, 5]: 0.25 ± 0.04 %IA/g
- Biodistribution, Blood ([3]; 24 h pi): 0.08 ± 0.01 %IA/g
- Biodistribution, CCK2i4svR(+) Tumor ([3]; 24 h pi): 5.40 ± 1.13 %IA/g
- Biodistribution, CCK2i4svR(-) Tumor ([3]; 24 h pi): 0.27 ± 0.10 %IA/g
- Biodistribution, Femur ([3]; 24 h pi): 0.16 ± 0.03 %IA/g
- Biodistribution, Heart ([3]; 24 h pi): 0.15 ± 0.03 %IA/g
- Biodistribution, Intestines ([3]; 24 h pi): 0.59 ± 0.11 %IA/g
- Biodistribution, Kidneys ([3]; 24 h pi): 1.84 ± 0.38 %IA/g
- Biodistribution, Liver ([3]; 24 h pi): 2.27 ± 0.30 %IA/g
- Biodistribution, Lungs ([3]; 24 h pi): 0.36 ± 0.05 %IA/g
- Biodistribution, Muscle ([3]; 24 h pi): 0.06± 0.00 %IA/g
- Biodistribution, Pancreas ([3]; 24 h pi): 0.18 ± 0.03 %IA/g
- Biodistribution, Spleen ([3]; 24 h pi): 0.64 ± 0.12 %IA/g
- Biodistribution, Stomach ([3]; 24 h pi): 0.21 ± 0.05 %IA/g
